Measured values reported in PubChem BioAssay (NCI).
Where “and” joins values, the source holds several entries; their conditions need not be identical. Identical values can stand only once.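 48-hour exposure; five concentrations; linearly interpolated endpoints. GI50 = concentration required for 50% inhibition of growth. TGI marks complete inhibition of growth.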

How the values were obtained:
Assay in all cases: growth of human tumour cells (NCI), 48 h
TK-10 renal = tested on: TK-10 renal
MDA-MB-435 = tested on: MDA-MB-435
HS 578T breast = tested on: HS 578T breast
MDA-MB-231 breast = tested on: MDA-MB-231 breast
PC-3 prostate = tested on: PC-3 prostate
HT29 colon = tested on: HT29 colon
SW-620 colon = tested on: SW-620 colon
UACC-62 melanoma = tested on: UACC-62 melanoma
KM12 colon = tested on: KM12 colon
SF-295 CNS = tested on: SF-295 CNS

| SMILES | GI50 (TK-10 renal) | TGI (TK-10 renal) | GI50 (MDA-MB-435) | TGI (MDA-MB-435) | GI50 (HS 578T breast) | TGI (HS 578T breast) | GI50 (MDA-MB-231 breast) | TGI (MDA-MB-231 breast) | GI50 (PC-3 prostate) | TGI (PC-3 prostate) | GI50 (HT29 colon) | TGI (HT29 colon) | GI50 (SW-620 colon) | TGI (SW-620 colon) | GI50 (UACC-62 melanoma) | TGI (UACC-62 melanoma) | GI50 (KM12 colon) | TGI (KM12 colon) | GI50 (SF-295 CNS) | TGI (SF-295 CNS) |
| --- | --- | --- | --- | --- | --- | --- | --- | --- | --- | --- | --- | --- | --- | --- | --- | --- | --- | --- | --- | --- |
| COC(=O)c1cc2c3ccccc3n3c(=O)c4cc5ccc(N(S(=O)(=O)c6ccc(C)cc6)S(=O)(=O)c6ccc(C)cc6)cc5nc4c(n1)c23 | 19.4 µM | 44 µM | > 100 µM | > 100 µM | 29.3 µM | > 100 µM | 21.4 µM | > 100 µM | > 100 µM | > 100 µM | > 100 µM | > 100 µM | > 100 µM | > 100 µM | 29.7 µM | > 100 µM | > 100 µM | > 100 µM | 20.5 µM | > 100 µM |
| CCC(O)c1ccc(Br)cc1NC(=O)c1cccc(Cl)c1 (stereo not given) | 41.7 µM | > 100 µM | 16.9 µM | 35 µM | 24.6 µM | > 100 µM | 18.8 µM | > 100 µM | 12.5 µM | 53.4 µM | 17.9 µM | 37.2 µM | 26.6 µM | 99.6 µM | 12.5 µM | > 100 µM | 13 µM | 29.6 µM | 15 µM | 35.1 µM |
| CC(C)c1c(-c2ccccc2)nc2c(C#N)c[nH]n2c1=O | 29.1 µM | > 100 µM | 31.1 µM | > 100 µM | 29.7 µM | 99.6 µM | 33 µM | > 100 µM | 25.2 µM | > 73.5 µM | 33.9 µM | > 100 µM | 35.3 µM | > 100 µM | 24.3 µM | 72.2 µM | 31.7 µM | > 100 µM | 28.7 µM | > 84 µM |
| COc1ccc2c(=O)cc(-c3ccccc3)[nH]c2c1 | > 100 µM | > 100 µM | 0.18 µM | 0.523 µM | 0.758 µM | > 100 µM | 1.92 µM | > 100 µM | 0.389 µM | > 100 µM | 0.379 µM | > 100 µM | 0.444 µM | > 100 µM | 0.431 µM | > 100 µM | 0.405 µM | > 100 µM | 0.33 µM | 1.84 µM |
| CS(=O)(=O)CCNCc1cc(-c2cc3c(Nc4ccc(OCc5cccc(F)c5)c(Cl)c4)ncnc3s2)cs1 | 3.16 µM | > 25 µM | 11 µM | > 25 µM | 4.67 µM | > 17.6 µM | 6.15 µM | 19.9 µM | 13 µM | > 25 µM | 5.41 µM | 13.1 µM | 15 µM | > 25 µM | 7.12 µM | 24.5 µM | 6.55 µM | > 25 µM | 9.89 µM | > 25 µM |
| CC(C)c1cnn2c(NCc3ccccc3)cc(NC[C@H]3CCNC[C@@H]3O)nc12 | 1.5 µM and 2.27 µM | 10.4 µM and 10.9 µM | 0.343 µM and 0.578 µM | 1.74 µM and 2.07 µM | 0.839 µM and 1.38 µM | 4.63 µM and 5.41 µM | 0.388 µM and 0.536 µM | 7.52 µM and 3.67 µM | 0.363 µM and 0.587 µM | 6.73 µM and 10.4 µM | 0.285 µM and 0.369 µM | 10.3 µM and 5.73 µM | 0.239 µM and 0.432 µM | 10.4 µM and 11 µM | 0.236 µM and 0.29 µM | 1.96 µM and 1.92 µM | 0.353 µM and 0.407 µM | 3.31 µM and 2.5 µM | 1.15 µM and 0.508 µM | 11.1 µM and 9.32 µM |
| O=C1/C(=C/c2cccc(Br)c2)COc2ccc(O)cc21 | 3.94 µM | 15.6 µM | 2.13 µM | 5.35 µM | 3.47 µM | 26.2 µM | 2.88 µM | 9.38 µM | 2.04 µM | 5.57 µM | 2.43 µM | 10.2 µM | 0.683 µM | 2.49 µM | 2.37 µM | 6.35 µM | 1.75 µM | 3.74 µM | 10.4 µM | 23.6 µM |
